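48-hour exposure; five concentrations; linearly interpolated endpoints. GI50: concentration for 50% inhibition of growth. TGI: concentration producing complete growth inhibition.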
What was measured:
Assay in all cases: growth of human tumour cells (NCI), 48 h
[1] = tested on: MCF7 breast
[2] = tested on: NCI-H23 lung
[3] = tested on: T-47D breast
[4] = tested on: SR leukemia
[5] = tested on: SK-MEL-28 melanoma
[6] = tested on: M14 melanoma
[7] = tested on: MALME-3M melanoma
[8] = tested on: OVCAR-4 ovarian
[9] = tested on: MOLT-4 leukemia
[10] = tested on: CAKI-1 renal
[11] = tested on: MDA-MB-231 breast
[12] = tested on: SNB-75 CNS
[13] = tested on: TK-10 renal
[14] = tested on: EKVX NSCLC
[15] = tested on: PC-3 prostate
[16] = tested on: HOP-92 NSCLC
[17] = tested on: LOX IMVI melanoma
[18] = tested on: RXF 393 renal
[19] = tested on: UO-31 renal
[20] = tested on: NCI/ADR-RES ovarian
[21] = tested on: OVCAR-8 ovarian
[22] = tested on: NCI-H226 lung
[23] = tested on: ACHN renal
[24] = tested on: SF-539 CNS
[25] = tested on: UACC-257 melanoma
[26] = tested on: SF-268 CNS
[27] = tested on: COLO 205 colon
[28] = tested on: OVCAR-5 ovarian
[29] = tested on: A549 NSCLC
[30] = tested on: OVCAR-3 ovarian
[31] = tested on: HL-60(TB) leukemia
[32] = tested on: HT29 colon
[33] = tested on: IGROV1 ovarian
[34] = tested on: K-562 leukemia
[35] = tested on: SK-OV-3 ovarian
[36] = tested on: BT-549 breast
[37] = tested on: NCI-H460 lung
[38] = tested on: UACC-62 melanoma
[39] = tested on: 786-0 renal
[40] = tested on: SW-620 colon
[41] = tested on: U251 CNS
[42] = tested on: HCC-2998 colon
[43] = tested on: SNB-19 CNS
[44] = tested on: HS 578T breast
[45] = tested on: SK-MEL-5 melanoma
[46] = tested on: HCT-15 colon
[47] = tested on: CCRF-CEM leukemia
[48] = tested on: SK-MEL-2 melanoma
[49] = tested on: RPMI-8226 leukemia
[50] = tested on: HOP-62 NSCLC
[51] = tested on: DU-145 prostate
[52] = tested on: SN12C renal
[53] = tested on: SF-295 CNS

`CCOC(=O)c1cc(C(=O)c2cc(OC)cc(OC)c2)n2ncccc12` showed a GI50 [1] of 1.31 µM, a TGI [1] of over 100 µM and a GI50 [2] of 4.9 µM. The TGI [2] was over 100 µM, the GI50 [3] was 17.2 µM and the TGI [3] was over 100 µM. For the same compound, the GI50 [4] was 0.573 µM, the TGI [4] was over 100 µM and the GI50 [5] was 7.36 µM. The TGI [5] was over 100 µM, the GI50 [6] was 0.394 µM and the TGI [6] was over 100 µM. The GI50 [7] was over 100 µM, the TGI [7] was over 100 µM and the GI50 [8] was 17 µM. The TGI [8] was over 100 µM, the GI50 [9] was 2.63 µM and the TGI [9] was over 100 µM. It also gave a GI50 [10] of 2.97 µM, a TGI [10] of over 100 µM and a GI50 [11] of 8.18 µM. For the same compound, the TGI [11] was over 100 µM, the GI50 [12] was 0.399 µM and the TGI [12] was over 100 µM. The GI50 [13] was 9.78 µM, the TGI [13] was over 100 µM and the GI50 [14] was 4.74 µM. The TGI [14] was over 100 µM, the GI50 [15] was 7.45 µM and the TGI [15] was over 100 µM. It also gave a GI50 [16] of 24.9 µM, a TGI [16] of over 100 µM and a GI50 [17] of 0.804 µM. It also gave a TGI [17] of over 100 µM, a GI50 [18] of 1.64 µM and a TGI [18] of 14.2 µM. The GI50 [19] was 5.68 µM, the TGI [19] was over 100 µM and the GI50 [20] was 0.463 µM. For the same compound, the TGI [20] was 61.1 µM, the GI50 [21] was 3.77 µM and the TGI [21] was over 100 µM. It also gave a GI50 [22] of over 100 µM, a TGI [22] of over 100 µM and a GI50 [23] of 12.2 µM. For the same compound, the TGI [23] was over 100 µM, the GI50 [24] was 1.85 µM and the TGI [24] was 40.2 µM. The GI50 [25] was 67.1 µM, the TGI [25] was over 100 µM and the GI50 [26] was 26.5 µM. It also gave a TGI [26] of over 100 µM, a GI50 [27] of 0.797 µM and a TGI [27] of 75.5 µM. For the same compound, the GI50 [28] was 43.5 µM, the TGI [28] was over 100 µM and the GI50 [29] was 11.1 µM. It also gave a TGI [29] of over 100 µM, a GI50 [30] of 0.402 µM and a TGI [30] of over 100 µM. It also gave a GI50 [31] of 1.38 µM, a TGI [31] of 4.66 µM and a GI50 [32] of 0.403 µM. For the same compound, the TGI [32] was over 100 µM, the GI50 [33] was 7.12 µM and the TGI [33] was over 100 µM. For the same compound, the GI50 [34] was 0.539 µM, the TGI [34] was over 100 µM and the GI50 [35] was 4.9 µM. It also gave a TGI [35] of over 100 µM, a GI50 [36] of 1.22 µM and a TGI [36] of over 100 µM. It also gave a GI50 [37] of 2.58 µM, a TGI [37] of over 100 µM and a GI50 [38] of 0.523 µM. For the same compound, the TGI [38] was over 100 µM, the GI50 [39] was 11.4 µM and the TGI [39] was over 100 µM. For the same compound, the GI50 [40] was 0.518 µM, the TGI [40] was over 100 µM and the GI50 [41] was 2 µM. The TGI [41] was over 100 µM, the GI50 [42] was 14.7 µM and the TGI [42] was over 100 µM. For the same compound, the GI50 [43] was 4.28 µM, the TGI [43] was over 100 µM and the GI50 [44] was 1.99 µM. The TGI [44] was over 100 µM, the GI50 [45] was 0.508 µM and the TGI [45] was over 100 µM. For the same compound, the GI50 [46] was 0.587 µM, the TGI [46] was over 100 µM and the GI50 [47] was 2.51 µM. The TGI [47] was over 100 µM, the GI50 [48] was 0.738 µM and the TGI [48] was over 100 µM. For the same compound, the GI50 [49] was 1.82 µM, the TGI [49] was over 100 µM and the GI50 [50] was 10.2 µM. The TGI [50] was over 100 µM, the GI50 [51] was 3.96 µM and the TGI [51] was over 100 µM. The GI50 [52] was 4.16 µM, the TGI [52] was over 100 µM and the GI50 [53] was 2.1 µM. For the same compound, the TGI [53] was over 100 µM.
